Data as given in article PMC3904085 (Frontiers in Neuroscience, 2014).

Tests used:
human OX1 receptors [1] = target: T1, human OX1 receptors (Homo sapiens, UniProt O43613); assay: Radioligand binding, [125I]-Orexin A displacement, HEK293 membranes; parameters: expressed in transfected cells; membranes; conditions: 90 min, mean ± s.e.m. (n)
T1 sequence (O43613 1-425): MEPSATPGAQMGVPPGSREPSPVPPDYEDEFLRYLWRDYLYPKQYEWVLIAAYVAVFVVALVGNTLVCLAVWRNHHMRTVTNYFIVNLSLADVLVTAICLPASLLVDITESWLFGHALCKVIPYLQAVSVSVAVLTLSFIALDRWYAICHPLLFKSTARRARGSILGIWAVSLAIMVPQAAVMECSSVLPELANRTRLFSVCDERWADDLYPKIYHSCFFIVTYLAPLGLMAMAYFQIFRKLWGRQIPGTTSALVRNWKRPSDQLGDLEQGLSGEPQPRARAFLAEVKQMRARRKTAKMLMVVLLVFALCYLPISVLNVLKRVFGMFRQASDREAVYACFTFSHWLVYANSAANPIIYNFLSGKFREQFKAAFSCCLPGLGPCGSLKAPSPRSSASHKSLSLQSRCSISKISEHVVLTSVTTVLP
Method: Briefly, the membranes were isolated by homogenizing cell pellet in 30 ml (w/v) 50 mM Tris buffer (pH 7.4) containing Roche Complete EDTA free protease tablets. […] All binding studies were conducted at a final volume of 200 μl. […] Then 300 μl of this solution was placed in column B on a Nunc polypropylene 96-well plate (Thermo Fisher Scientific, Inc., Rochester, NY). Serial dilutions were then made using a Biomek 2000 (Beckman Coulter, Inc., Fullerton, CA) from a starting concentration of 40 μM. […] All binding was terminated by rapid filtration using a TOMTEC 96-well cell harvester (Hamden, CT) through GF/A filters that had been presoaked with 0.3% polyethyleneimine. The filters were washed with 5.0 ml ice-cold 50 mM Tris buffer (pH 7.4) and air-dried overnight. […] Protein concentrations were measured using Coomassie Protein Plus Assay Reagent (Pierce, Rockford, IL) and serum albumin standards.

human OX1 receptors [2] = target: T1, human OX1 receptors; assay: Intracellular calcium mobilization (FLIPR), antagonist mode vs EC70 orexin-A; conditions: HEK293 cells, mean ± s.e.m. (n)
Method: Recombinant human OX1 and OX2 receptors were stably expressed in HEK293 cells, or rat recombinant OX1 and OX2 receptors stably expressed in AV12 cells, and assessed for intracellular calcium mobilization using Fluo-3 dye (Molecular Probes, Eugene, OR). […] It was further diluted to 8 mM in 2.5 mM probenecid loading buffer which was made as described below. The human cell line was grown in DMEM/F-12 (3:1) supplemented with 10% FBS (heat-inactivated), 20 mM HEPES, 1% Penn/Strep, and 4 μg/ml Blasticidin (35,000 cells/well). The rat cell line was grown in DMEM supplemented with 10% FBS (heat-inactivated), 20 mM HEPES, 1% Penn/Strep, 4 μg/ml Blasticidin, and 1 mM sodium pyruvate (60,000 cells/well). […] Finally, plates were read on a fluorescence imaging plate reader (FLIPR; Molecular Devices, LLC, Sunnyvale, CA) instrument with a 50 μl addition of antagonist; cells were placed in the dark at room temperature for an additional 15 min; then read on FLIPR instrument with a 100 μl addition of an EC70 concentration of orexin A (for a total volume of 200 μl). […] Kb-values were calculated based on 10-point dilution curves using ActivityBase templates (ID Business Solutions, Ltd., Guildford, Surrey, UK). […]

CNC(=O)[C@@H](c1ccccc1)N1CCc2cc(OC)c(OC)cc2[C@@H]1CCc1ccc(C(F)(F)F)cc1 [Almorexant (R)]
Receptor binding affinity, Ki OX1 (human OX1 receptors [1]): inactive
Functional antagonist activity, Kb hOX1 (human OX1 receptors [2]): inactive
